{"source": "patent US9629830B2", "about": "“EphA4 inhibitors as neuroprotective agents” (The Hong Kong University of Science and Technology, priority 2013, dated 2017)", "target": "EphA4 (Homo sapiens, UniProt P54764)", "sequence (P54764 20-986, species assumed)": "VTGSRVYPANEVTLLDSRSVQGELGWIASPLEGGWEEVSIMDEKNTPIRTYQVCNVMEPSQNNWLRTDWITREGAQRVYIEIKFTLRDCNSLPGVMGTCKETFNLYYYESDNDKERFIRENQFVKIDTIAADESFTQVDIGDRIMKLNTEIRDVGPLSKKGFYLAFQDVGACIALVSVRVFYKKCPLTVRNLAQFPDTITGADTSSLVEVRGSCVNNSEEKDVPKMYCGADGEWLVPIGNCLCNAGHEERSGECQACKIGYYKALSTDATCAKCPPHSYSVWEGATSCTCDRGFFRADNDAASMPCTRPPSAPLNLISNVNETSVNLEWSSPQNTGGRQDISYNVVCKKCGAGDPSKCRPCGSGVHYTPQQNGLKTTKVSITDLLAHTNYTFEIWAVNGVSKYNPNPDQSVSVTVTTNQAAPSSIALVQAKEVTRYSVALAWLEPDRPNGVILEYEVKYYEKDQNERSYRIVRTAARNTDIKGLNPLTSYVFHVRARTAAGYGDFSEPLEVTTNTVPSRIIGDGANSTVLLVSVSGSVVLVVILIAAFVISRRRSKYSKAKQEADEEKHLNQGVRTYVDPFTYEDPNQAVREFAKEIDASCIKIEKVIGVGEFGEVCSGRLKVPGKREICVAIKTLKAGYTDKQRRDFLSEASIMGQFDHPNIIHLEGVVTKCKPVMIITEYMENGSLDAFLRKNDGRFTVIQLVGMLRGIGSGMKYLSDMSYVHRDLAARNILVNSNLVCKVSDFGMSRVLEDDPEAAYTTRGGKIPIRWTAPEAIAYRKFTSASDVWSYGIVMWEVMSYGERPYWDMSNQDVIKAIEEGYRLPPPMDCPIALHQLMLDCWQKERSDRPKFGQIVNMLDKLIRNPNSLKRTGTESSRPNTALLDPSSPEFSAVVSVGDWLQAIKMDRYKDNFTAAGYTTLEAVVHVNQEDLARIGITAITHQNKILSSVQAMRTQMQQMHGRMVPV", "assay": "Inhibition of EphA4 signaling (assay not specified)"}
{"molecule": "CC[C@H]1CN2CC[C@@]3(C(=O)Nc4ccccc43)[C@@H]2C[C@@H]1/C(=C\\OC)C(=O)OC", "note": "[IsoRhy, isorhynchophylline]", "values": [{"measurement": "inhibition of EphA4 signaling", "result": "inactive in inhibiting EphA4 signaling"}]}
